The values that follow are results of earlier work, collected in paper PMC13062086, “A sstR2-targeted radiohybrid theranostic agent for PET imaging and β^- therapy with excellent preclinical performance” (npj Imaging, 2026).

The data set addresses T1, human serum albumin (HSA) (Homo sapiens, UniProt P02768).
T1 construct: purchased Daicel, Tokyo, Japan Chiralpak HSA column (50 × 3 mm, 5 μm, H13 h-2433)
The arrangement: method as in earlier work. The conditions noted are these: literature-known values for calibration curve ref 2-3 (SI; main text 45, 46).

T1 sequence (P02768 25-609): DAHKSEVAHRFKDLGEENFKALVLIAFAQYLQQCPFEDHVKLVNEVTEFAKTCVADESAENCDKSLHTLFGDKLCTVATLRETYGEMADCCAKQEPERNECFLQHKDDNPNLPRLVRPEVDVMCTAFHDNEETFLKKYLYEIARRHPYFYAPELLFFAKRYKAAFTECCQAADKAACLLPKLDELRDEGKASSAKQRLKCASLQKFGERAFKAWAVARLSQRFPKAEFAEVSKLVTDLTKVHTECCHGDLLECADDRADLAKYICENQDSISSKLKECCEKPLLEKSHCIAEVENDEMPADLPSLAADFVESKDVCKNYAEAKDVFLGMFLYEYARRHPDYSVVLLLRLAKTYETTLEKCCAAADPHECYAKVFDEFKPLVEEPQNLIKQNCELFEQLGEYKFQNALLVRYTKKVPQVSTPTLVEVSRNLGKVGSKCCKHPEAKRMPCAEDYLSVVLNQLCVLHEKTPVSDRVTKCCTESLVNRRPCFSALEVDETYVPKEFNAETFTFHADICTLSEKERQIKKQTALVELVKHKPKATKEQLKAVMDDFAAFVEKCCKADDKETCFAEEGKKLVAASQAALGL

On to `Nc1ccccc1` [Aniline], for which the HSA-binding is on record as 14.06%.

As to `O=C(O)c1ccccc1` [Benzoic acid], the HSA-binding is 34.27%.

Regarding `OCc1ccccc1` [Benzyl alcohol], the HSA-binding is recorded as 13.15%.

`COc1ccc(Cl)cc1C(=O)NCCc1ccc(S(=O)(=O)NC(=O)NC2CCCCC2)cc1` [Glibenclamide]: the HSA-binding was 99.00%.

As for `Oc1ccccc1` [Phenol], the HSA-binding is 20.69%.

Take `CCCN(CCC)S(=O)(=O)c1ccc(C(=O)O)cc1` [Probenecid]: the HSA-binding is recorded as 95.00%.
